Results from ChEMBL document CHEMBL1152441, “Discovery of [18F]N-(2-(diethylamino)ethyl)-6-fluoronicotinamide: a melanoma positron emission tomography imaging radiotracer with high tumor to body contrast ratio and rapid renal clearance” (J Med Chem, 2009).
Values belong to the compound of their own block, whether it stands above or below them.

Experiments:
[1] = system: Bone; experiment: Biodistribution in bone of mouse B16F0 cells implanted C57BL/6J mouse assessed per gram of tissue at 0.4 to 5.5 MBq, iv after 1 hr by gamma counter; assay type: ADME, organism-based, Bone element; settings: in vivo
[2] = system: Bone; experiment: Biodistribution in bone of mouse B16F0 cells implanted C57BL/6J mouse assessed per gram of tissue at 0.4 to 5.5 MBq, iv after 6 hrs by gamma counter; assay type: ADME, organism-based, Bone element; settings: in vivo
[3] = system: Lung; experiment: Biodistribution in lung of mouse B16F0 cells implanted C57BL/6J mouse assessed per gram of tissue at 0.4 to 5.5 MBq, iv after 3 hrs by gamma counter; assay type: ADME, organism-based; settings: in vivo
[4] = Biodistribution in tumor of mouse B16F0 cells implanted C57BL/6J mouse assessed per gram of tissue at 0.4 to 5.5 MBq, iv after 3 hrs by gamma counter; assay type: ADME, organism-based, Neoplasm; settings: in vivo
[5] = system: Stomach; experiment: Biodistribution in stomach of mouse B16F0 cells implanted C57BL/6J mouse assessed per gram of tissue at 0.4 to 5.5 MBq, iv after 3 hrs by gamma counter; assay type: ADME, organism-based; settings: in vivo
[6] = system: Intestine; experiment: Biodistribution in intestine of mouse B16F0 cells implanted C57BL/6J mouse assessed per gram of tissue at 0.4 to 5.5 MBq, iv after 6 hrs by gamma counter; assay type: ADME, organism-based; settings: in vivo
[7] = system: Lung; experiment: Biodistribution in lung of mouse B16F0 cells implanted C57BL/6J mouse assessed per gram of tissue at 0.4 to 5.5 MBq, iv after 6 hrs by gamma counter; assay type: ADME, organism-based; settings: in vivo
[8] = Biodistribution in eye of mouse B16F0 cells implanted C57BL/6J mouse assessed per gram of tissue at 0.4 to 5.5 MBq, iv after 3 hrs by gamma counter; assay type: ADME, organism-based; settings: in vivo
[9] = Biodistribution in tumor of mouse B16F0 cells implanted C57BL/6J mouse assessed per gram of tissue at 0.4 to 5.5 MBq, iv after 0.25 hrs by gamma counter; assay type: ADME, organism-based, Neoplasm; settings: in vivo
[10] = system: Intestine; experiment: Biodistribution in intestine of mouse B16F0 cells implanted C57BL/6J mouse assessed per gram of tissue at 0.4 to 5.5 MBq, iv after 3 hrs by gamma counter; assay type: ADME, organism-based; settings: in vivo
[11] = system: Intestine; experiment: Biodistribution in intestine of mouse B16F0 cells implanted C57BL/6J mouse assessed per gram of tissue at 0.4 to 5.5 MBq, iv after 1 hr by gamma counter; assay type: ADME, organism-based; settings: in vivo
[12] = system: Spleen; experiment: Biodistribution in spleen of mouse B16F0 cells implanted C57BL/6J mouse assessed per gram of tissue at 0.4 to 5.5 MBq, iv after 6 hrs by gamma counter; assay type: ADME, organism-based; settings: in vivo
[13] = Biodistribution in eye of mouse B16F0 cells implanted C57BL/6J mouse assessed per gram of tissue at 0.4 to 5.5 MBq, iv after 6 hrs by gamma counter; assay type: ADME, organism-based; settings: in vivo
[14] = system: Spleen; experiment: Biodistribution in spleen of mouse B16F0 cells implanted C57BL/6J mouse assessed per gram of tissue at 0.4 to 5.5 MBq, iv after 0.25 hrs by gamma counter; assay type: ADME, organism-based; settings: in vivo
[15] = system: Thyroid gland; experiment: Biodistribution in thyroid of mouse B16F0 cells implanted C57BL/6J mouse assessed per gram of tissue at 0.4 to 5.5 MBq, iv after 3 hrs by gamma counter; assay type: ADME, organism-based; settings: in vivo
[16] = system: Stomach; experiment: Biodistribution in stomach of mouse B16F0 cells implanted C57BL/6J mouse assessed per gram of tissue at 0.4 to 5.5 MBq, iv after 0.25 hrs by gamma counter; assay type: ADME, organism-based; settings: in vivo
[17] = system: Spleen; experiment: Biodistribution in spleen of mouse B16F0 cells implanted C57BL/6J mouse assessed per gram of tissue at 0.4 to 5.5 MBq, iv after 3 hrs by gamma counter; assay type: ADME, organism-based; settings: in vivo
[18] = system: Intestine; experiment: Biodistribution in intestine of mouse B16F0 cells implanted C57BL/6J mouse assessed per gram of tissue at 0.4 to 5.5 MBq, iv after 0.25 hrs by gamma counter; assay type: ADME, organism-based; settings: in vivo
[19] = system: Lung; experiment: Biodistribution in lung of mouse B16F0 cells implanted C57BL/6J mouse assessed per gram of tissue at 0.4 to 5.5 MBq, iv after 0.25 hrs by gamma counter; assay type: ADME, organism-based; settings: in vivo
[20] = Biodistribution in tumor of mouse B16F0 cells implanted C57BL/6J mouse assessed per gram of tissue at 0.4 to 5.5 MBq, iv after 1 hr by gamma counter; assay type: ADME, organism-based, Neoplasm; settings: in vivo
[21] = Biodistribution in eye of mouse B16F0 cells implanted C57BL/6J mouse assessed per gram of tissue at 0.4 to 5.5 MBq, iv after 1 hr by gamma counter; assay type: ADME, organism-based; settings: in vivo
[22] = system: Stomach; experiment: Biodistribution in stomach of mouse B16F0 cells implanted C57BL/6J mouse assessed per gram of tissue at 0.4 to 5.5 MBq, iv after 6 hrs by gamma counter; assay type: ADME, organism-based; settings: in vivo
[23] = system: Spleen; experiment: Biodistribution in spleen of mouse B16F0 cells implanted C57BL/6J mouse assessed per gram of tissue at 0.4 to 5.5 MBq, iv after 1 hr by gamma counter; assay type: ADME, organism-based; settings: in vivo
[24] = system: Thyroid gland; experiment: Biodistribution in thyroid of mouse B16F0 cells implanted C57BL/6J mouse assessed per gram of tissue at 0.4 to 5.5 MBq, iv after 0.25 hrs by gamma counter; assay type: ADME, organism-based; settings: in vivo
[25] = Biodistribution in tumor of mouse B16F0 cells implanted C57BL/6J mouse assessed per gram of tissue at 0.4 to 5.5 MBq, iv after 6 hrs by gamma counter; assay type: ADME, organism-based, Neoplasm; settings: in vivo
[26] = system: Thyroid gland; experiment: Biodistribution in thyroid of mouse B16F0 cells implanted C57BL/6J mouse assessed per gram of tissue at 0.4 to 5.5 MBq, iv after 1 hr by gamma counter; assay type: ADME, organism-based; settings: in vivo
[27] = system: Bone; experiment: Biodistribution in bone of mouse B16F0 cells implanted C57BL/6J mouse assessed per gram of tissue at 0.4 to 5.5 MBq, iv after 0.25 hrs by gamma counter; assay type: ADME, organism-based, Bone element; settings: in vivo
[28] = Biodistribution in eye of mouse B16F0 cells implanted C57BL/6J mouse assessed per gram of tissue at 0.4 to 5.5 MBq, iv after 0.25 hrs by gamma counter; assay type: ADME, organism-based; settings: in vivo
[29] = system: Lung; experiment: Biodistribution in lung of mouse B16F0 cells implanted C57BL/6J mouse assessed per gram of tissue at 0.4 to 5.5 MBq, iv after 1 hr by gamma counter; assay type: ADME, organism-based; settings: in vivo
[30] = system: Thyroid gland; experiment: Biodistribution in thyroid of mouse B16F0 cells implanted C57BL/6J mouse assessed per gram of tissue at 0.4 to 5.5 MBq, iv after 6 hrs by gamma counter; assay type: ADME, organism-based; settings: in vivo
[31] = system: Stomach; experiment: Biodistribution in stomach of mouse B16F0 cells implanted C57BL/6J mouse assessed per gram of tissue at 0.4 to 5.5 MBq, iv after 1 hr by gamma counter; assay type: ADME, organism-based; settings: in vivo
[32] = system: Bone; experiment: Biodistribution in bone of mouse B16F0 cells implanted C57BL/6J mouse assessed per gram of tissue at 0.4 to 5.5 MBq, iv after 3 hrs by gamma counter; assay type: ADME, organism-based, Bone element; settings: in vivo
[33] = Lipophilicity, log P at pH 7.5; assay type: physicochemical; settings: buffer
[34] = system: Lung; experiment: Biodistribution in lung of mouse B16F0 cells implanted C57BL/6J mouse assessed per gram of tissue at 0.4 to 5.5 MBq, iv after 2 hrs by gamma counter; assay type: ADME, organism-based; settings: in vivo
[35] = system: Intestine; experiment: Biodistribution in intestine of mouse B16F0 cells implanted C57BL/6J mouse assessed per gram of tissue at 0.4 to 5.5 MBq, iv after 2 hrs by gamma counter; assay type: ADME, organism-based; settings: in vivo
[36] = system: Lung; experiment: Biodistribution in lung of mouse B16F0 cells implanted C57BL/6J mouse assessed per gram of tissue at 0.4 to 5.5 MBq, iv after 0.5 hrs by gamma counter; assay type: ADME, organism-based; settings: in vivo
[37] = system: Intestine; experiment: Biodistribution in intestine of mouse B16F0 cells implanted C57BL/6J mouse assessed per gram of tissue at 0.4 to 5.5 MBq, iv after 0.5 hrs by gamma counter; assay type: ADME, organism-based; settings: in vivo
[38] = system: Spleen; experiment: Biodistribution in spleen of mouse B16F0 cells implanted C57BL/6J mouse assessed per gram of tissue at 0.4 to 5.5 MBq, iv after 2 hrs by gamma counter; assay type: ADME, organism-based; settings: in vivo
[39] = system: Bone; experiment: Biodistribution in bone of mouse B16F0 cells implanted C57BL/6J mouse assessed per gram of tissue at 0.4 to 5.5 MBq, iv after 2 hrs by gamma counter; assay type: ADME, organism-based, Bone element; settings: in vivo
[40] = Biodistribution in eye of mouse B16F0 cells implanted C57BL/6J mouse assessed per gram of tissue at 0.4 to 5.5 MBq, iv after 2 hrs by gamma counter; assay type: ADME, organism-based; settings: in vivo
[41] = system: Spleen; experiment: Biodistribution in spleen of mouse B16F0 cells implanted C57BL/6J mouse assessed per gram of tissue at 0.4 to 5.5 MBq, iv after 0.5 hrs by gamma counter; assay type: ADME, organism-based; settings: in vivo
[42] = system: Stomach; experiment: Biodistribution in stomach of mouse B16F0 cells implanted C57BL/6J mouse assessed per gram of tissue at 0.4 to 5.5 MBq, iv after 0.5 hrs by gamma counter; assay type: ADME, organism-based; settings: in vivo
[43] = system: Bone; experiment: Biodistribution in bone of mouse B16F0 cells implanted C57BL/6J mouse assessed per gram of tissue at 0.4 to 5.5 MBq, iv after 0.5 hrs by gamma counter; assay type: ADME, organism-based, Bone element; settings: in vivo
[44] = Biodistribution in tumor of mouse B16F0 cells implanted C57BL/6J mouse assessed per gram of tissue at 0.4 to 5.5 MBq, iv after 0.5 hrs by gamma counter; assay type: ADME, organism-based, Neoplasm; settings: in vivo
[45] = system: Thyroid gland; experiment: Biodistribution in thyroid of mouse B16F0 cells implanted C57BL/6J mouse assessed per gram of tissue at 0.4 to 5.5 MBq, iv after 2 hrs by gamma counter; assay type: ADME, organism-based; settings: in vivo
[46] = system: Stomach; experiment: Biodistribution in stomach of mouse B16F0 cells implanted C57BL/6J mouse assessed per gram of tissue at 0.4 to 5.5 MBq, iv after 2 hrs by gamma counter; assay type: ADME, organism-based; settings: in vivo
[47] = Biodistribution in eye of mouse B16F0 cells implanted C57BL/6J mouse assessed per gram of tissue at 0.4 to 5.5 MBq, iv after 0.5 hrs by gamma counter; assay type: ADME, organism-based; settings: in vivo
[48] = Biodistribution in tumor of mouse B16F0 cells implanted C57BL/6J mouse assessed per gram of tissue at 0.4 to 5.5 MBq, iv after 2 hrs by gamma counter; assay type: ADME, organism-based, Neoplasm; settings: in vivo
[49] = system: Thyroid gland; experiment: Biodistribution in thyroid of mouse B16F0 cells implanted C57BL/6J mouse assessed per gram of tissue at 0.4 to 5.5 MBq, iv after 0.5 hrs by gamma counter; assay type: ADME, organism-based; settings: in vivo

Drug uptake [1]: 1.5%
Drug uptake [2]: 0.43%
Drug uptake [3]: 0.37%
Drug uptake [4]: 8.8%
Drug uptake [5]: 0.82%
Drug uptake [6]: 0.23%
Drug uptake [7]: 0.14%
Drug uptake [8]: 18.8%
Drug uptake [9]: 7%
Drug uptake [10]: 0.72%
Drug uptake [11]: 2.9%
Drug uptake [12]: 1.3%
Drug uptake [13]: 16.5%
Drug uptake [14]: 10.3%
Drug uptake [15]: 1.5%
Drug uptake [16]: 13.2%
Drug uptake [17]: 2.3%
Drug uptake [18]: 7%
Drug uptake [19]: 5.7%
Drug uptake [20]: 12.2%
Drug uptake [21]: 23.7%
Drug uptake [22]: 0.3%
Drug uptake [23]: 3.2%
Drug uptake [24]: 4.8%
Drug uptake [25]: 7.2%
Drug uptake [26]: 2.2%
Drug uptake [27]: 4%
Drug uptake [28]: 17.3%
Drug uptake [29]: 1.8%
Drug uptake [30]: 1%
Drug uptake [31]: 5.3%
Drug uptake [32]: 0.77%
logD [33]: 1.22
Structure (SMILES): CCN(CC)CCNC(=O)c1ccnc([18F])c1

Drug uptake [1]: 1.4%
Drug uptake [2]: 0.52%
Drug uptake [3]: 0.25%
Drug uptake [4]: 7.8%
Drug uptake [5]: 0.83%
Drug uptake [6]: 0.13%
Drug uptake [34]: 0.38%
Drug uptake [35]: 0.71%
Drug uptake [7]: 0.07%
Drug uptake [8]: 17.3%
Drug uptake [9]: 7%
Drug uptake [10]: 0.54%
Drug uptake [11]: 2.1%
Drug uptake [12]: 0.47%
Drug uptake [36]: 2.9%
Drug uptake [37]: 3.9%
Drug uptake [13]: 15.6%
Drug uptake [14]: 8.6%
Drug uptake [38]: 1.8%
Drug uptake [39]: 0.58%
Drug uptake [15]: 0.49%
Drug uptake [16]: 9.4%
Drug uptake [40]: 17.3%
Drug uptake [41]: 7.2%
Drug uptake [17]: 0.89%
Drug uptake [42]: 6.6%
Drug uptake [18]: 5.4%
Drug uptake [19]: 5.6%
Drug uptake [20]: 8.4%
Drug uptake [21]: 18.8%
Drug uptake [43]: 2.1%
Drug uptake [22]: 0.19%
Drug uptake [44]: 8.6%
Drug uptake [23]: 2.4%
Drug uptake [24]: 5.5%
Drug uptake [45]: 0.61%
Drug uptake [25]: 7.7%
Drug uptake [26]: 3.3%
Drug uptake [27]: 3.5%
Drug uptake [28]: 14.7%
Drug uptake [29]: 1.6%
Drug uptake [46]: 1.5%
Drug uptake [30]: 0.17%
Drug uptake [47]: 16%
Drug uptake [31]: 3.4%
Drug uptake [32]: 0.62%
logD [33]: 1.1
Drug uptake [48]: 9.4%
Drug uptake [49]: 2.5%
Structure (SMILES): CCN(CC)CCNC(=O)c1ccc([18F])nc1
